Tested on: NCI-H292 lung cancer cells
Assay: FDA drug screening, complete media vs cholesterol-free media with simvastatin (TABLE 2)
Type: cell-based, human
Settings: NCI-H292 cells, FDA library drug in cholesterol-free media with simvastatin 0.04 μM

Row | Compound | Cholesterol-free media + simvastatin (0.04 μM)
1 | O=c1ccn([C@@H]2O[C@H](CO)[C@@H](O)[C@H]2O)c(=O)[nH]1 [Uridine] | 1.294
2 | COc1cc2c(cc1OC)[C@H]1C[C@@H](OC(=O)[C@@H](N)C(C)C)[C@H](CC(C)C)CN1CC2 [Valbenazine] | 1.305

Same assay, conditions: NCI-H292 cells, FDA library drug in complete media

Row | Compound | Complete Media
3 | O=c1ccn([C@@H]2O[C@H](CO)[C@@H](O)[C@H]2O)c(=O)[nH]1 [Uridine] | 1.006
4 | COc1cc2c(cc1OC)[C@H]1C[C@@H](OC(=O)[C@@H](N)C(C)C)[C@H](CC(C)C)CN1CC2 [Valbenazine] | 1.011

Same assay, conditions: NCI-H292 cells, cholesterol-free media with simvastatin 0.04 μM; FDA drug library screen (TABLE 2)

Row | Compound | Cholesterol-free media + simvastatin (0.04 μM)
5 | CC(=O)O[C@]1(C(C)=O)CC[C@H]2[C@@H]3CCC4=CC(=O)CCC4=C3[C@@H](c3ccc(N(C)C)cc3)C[C@@]21C [Ulipristal acetate] | 0.6984
6 | O=C(O)C[C@@H]1CC[C@H](NC(=O)Cc2cccs2)B(O)O1 [Vaborbactam] | 0.8544

Same assay, conditions: NCI-H292 cells, cholesterol-free media with simvastatin 0.04 μM; cell growth value in FDA drug screen

Row | Compound | Cholesterol-free media + simvastatin (0.04 μM)
7 | N[C@@H]1[C@H]2CN(c3nc4c(cc3F)c(=O)c(C(=O)O)cn4-c3ccc(F)cc3F)C[C@@H]12 [Trovafloxacin] | 1.092
8 | C[C@@H]1O[C@@H](OC[C@H]2O[C@@H](Oc3c(-c4ccc(OCCO)c(OCCO)c4)oc4cc(OCCO)cc(O)c4c3=O)[C@H](O)[C@@H](O)[C@@H]2O)[C@H](O)[C@H](O)[C@H]1O [Troxerutin] | 0.8482

Same assay, conditions: NCI-H292 cells, complete media; FDA drug library screen (TABLE 2)

Row | Compound | Complete Media
9 | CC(=O)O[C@]1(C(C)=O)CC[C@H]2[C@@H]3CCC4=CC(=O)CCC4=C3[C@@H](c3ccc(N(C)C)cc3)C[C@@]21C [Ulipristal acetate] | 0.695
10 | O=C(O)C[C@@H]1CC[C@H](NC(=O)Cc2cccs2)B(O)O1 [Vaborbactam] | 0.8532

Same assay, conditions: NCI-H292 cells, complete media; cell growth value in FDA drug screen

Row | Compound | Complete Media
11 | N[C@@H]1[C@H]2CN(c3nc4c(cc3F)c(=O)c(C(=O)O)cn4-c3ccc(F)cc3F)C[C@@H]12 [Trovafloxacin] | 1.114
12 | C[C@@H]1O[C@@H](OC[C@H]2O[C@@H](Oc3c(-c4ccc(OCCO)c(OCCO)c4)oc4cc(OCCO)cc(O)c4c3=O)[C@H](O)[C@@H](O)[C@@H]2O)[C@H](O)[C@H](O)[C@H]1O [Troxerutin] | 0.9455

Same assay, conditions: complete media minus cholesterol-free media + simvastatin (0.04 μM); >0 enhanced anti-cancer activity, about 0 neutral, <0 antagonist

Row | Compound | Difference
13 | CC(=O)O[C@]1(C(C)=O)CC[C@H]2[C@@H]3CCC4=CC(=O)CCC4=C3[C@@H](c3ccc(N(C)C)cc3)C[C@@]21C [Ulipristal acetate] | 0.00
14 | O=C(O)C[C@@H]1CC[C@H](NC(=O)Cc2cccs2)B(O)O1 [Vaborbactam] | 0.00

Same assay, conditions: complete media minus cholesterol-free media + simvastatin; >0 enhanced anti-cancer activity, about 0 neutral, <0 antagonist

Row | Compound | Difference
15 | N[C@@H]1[C@H]2CN(c3nc4c(cc3F)c(=O)c(C(=O)O)cn4-c3ccc(F)cc3F)C[C@@H]12 [Trovafloxacin] | 0.02
16 | C[C@@H]1O[C@@H](OC[C@H]2O[C@@H](Oc3c(-c4ccc(OCCO)c(OCCO)c4)oc4cc(OCCO)cc(O)c4c3=O)[C@H](O)[C@@H](O)[C@@H]2O)[C@H](O)[C@H](O)[C@H]1O [Troxerutin] | 0.10

Same assay, conditions: complete media vs cholesterol-free media + simvastatin (0.04 μM); >0 enhanced anti-cancer activity, about 0 neutral, <0 antagonist

Row | Compound | Difference
17 | O=c1ccn([C@@H]2O[C@H](CO)[C@@H](O)[C@H]2O)c(=O)[nH]1 [Uridine] | −0.29
18 | COc1cc2c(cc1OC)[C@H]1C[C@@H](OC(=O)[C@@H](N)C(C)C)[C@H](CC(C)C)CN1CC2 [Valbenazine] | −0.29

Tested on: NCI-H292 lung cancer cells
Assay: FDA drug screening, complete media vs cholesterol-free media without statin (TABLE 1)
Type: cell-based, human
Settings: Complete minus Cholesterol-free; >0 enhanced anti-cancer activity, about 0 neutral, <0 antagonist

Row | Compound | Difference
19 | O=c1ccn([C@@H]2O[C@H](CO)[C@@H](O)[C@H]2O)c(=O)[nH]1 [Uridine] | −0.19
20 | O=C(O)C[C@@H]1CC[C@H](NC(=O)Cc2cccs2)B(O)O1 [Vaborbactam] | 0.06

Same assay, conditions: Complete minus Cholesterol-free; greater than 0 enhanced anti-cancer activity, about 0 neutral, below 0 antagonist

Row | Compound | Difference
21 | C[C@@H]1O[C@@H](OC[C@H]2O[C@@H](Oc3c(-c4ccc(OCCO)c(OCCO)c4)oc4cc(OCCO)cc(O)c4c3=O)[C@H](O)[C@@H](O)[C@@H]2O)[C@H](O)[C@H](O)[C@H]1O [Troxerutin] | −0.13
22 | COc1cc2c(cc1OC)[C@H]1C[C@@H](OC(=O)[C@@H](N)C(C)C)[C@H](CC(C)C)CN1CC2 [Valbenazine] | −0.16

Same assay, conditions: NCI-H292 cells, FDA drug library screen, cholesterol-free media without statin

Row | Compound | Cholesterol-free
23 | C[C@@H]1O[C@@H](OC[C@H]2O[C@@H](Oc3c(-c4ccc(OCCO)c(OCCO)c4)oc4cc(OCCO)cc(O)c4c3=O)[C@H](O)[C@@H](O)[C@@H]2O)[C@H](O)[C@H](O)[C@H]1O [Troxerutin] | 1.15
24 | COc1cc2c(cc1OC)[C@H]1C[C@@H](OC(=O)[C@@H](N)C(C)C)[C@H](CC(C)C)CN1CC2 [Valbenazine] | 1.298

Same assay, conditions: NCI-H292 cells, FDA drug library screen, complete media

Row | Compound | Complete
25 | C[C@@H]1O[C@@H](OC[C@H]2O[C@@H](Oc3c(-c4ccc(OCCO)c(OCCO)c4)oc4cc(OCCO)cc(O)c4c3=O)[C@H](O)[C@@H](O)[C@@H]2O)[C@H](O)[C@H](O)[C@H]1O [Troxerutin] | 1.021
26 | COc1cc2c(cc1OC)[C@H]1C[C@@H](OC(=O)[C@@H](N)C(C)C)[C@H](CC(C)C)CN1CC2 [Valbenazine] | 1.135

Same assay, conditions: NCI-H292 cells, cholesterol-free media without statin

Row | Compound | Cholesterol-free
27 | N[C@@H]1[C@H]2CN(c3nc4c(cc3F)c(=O)c(C(=O)O)cn4-c3ccc(F)cc3F)C[C@@H]12 [Trovafloxacin] | 1.186
28 | CC(=O)O[C@]1(C(C)=O)CC[C@H]2[C@@H]3CCC4=CC(=O)CCC4=C3[C@@H](c3ccc(N(C)C)cc3)C[C@@]21C [Ulipristal acetate] | 1.13
29 | O=c1ccn([C@@H]2O[C@H](CO)[C@@H](O)[C@H]2O)c(=O)[nH]1 [Uridine] | 1.404

Same assay, conditions: NCI-H292 cells, cholesterol-free media without statin, FDA drug library screen

Row | Compound | Cholesterol-free
30 | O=C(O)C[C@@H]1CC[C@H](NC(=O)Cc2cccs2)B(O)O1 [Vaborbactam] | 0.9017

Same assay, conditions: NCI-H292 cells, complete media

Row | Compound | Complete
31 | N[C@@H]1[C@H]2CN(c3nc4c(cc3F)c(=O)c(C(=O)O)cn4-c3ccc(F)cc3F)C[C@@H]12 [Trovafloxacin] | 0.8678
32 | CC(=O)O[C@]1(C(C)=O)CC[C@H]2[C@@H]3CCC4=CC(=O)CCC4=C3[C@@H](c3ccc(N(C)C)cc3)C[C@@]21C [Ulipristal acetate] | 0.8186
33 | O=c1ccn([C@@H]2O[C@H](CO)[C@@H](O)[C@H]2O)c(=O)[nH]1 [Uridine] | 1.215

Same assay, conditions: NCI-H292 cells, complete media, FDA drug library screen

Row | Compound | Complete
34 | O=C(O)C[C@@H]1CC[C@H](NC(=O)Cc2cccs2)B(O)O1 [Vaborbactam] | 0.9648

Same assay, conditions: complete vs cholesterol-free media; greater than 0 enhanced anti-cancer activity, about 0 neutral, below 0 antagonists

Row | Compound | Difference
35 | N[C@@H]1[C@H]2CN(c3nc4c(cc3F)c(=O)c(C(=O)O)cn4-c3ccc(F)cc3F)C[C@@H]12 [Trovafloxacin] | −0.32
36 | CC(=O)O[C@]1(C(C)=O)CC[C@H]2[C@@H]3CCC4=CC(=O)CCC4=C3[C@@H](c3ccc(N(C)C)cc3)C[C@@]21C [Ulipristal acetate] | −0.31

— patent US20250144067A1, “PERSONALIZED STARVATION THERAPY FOR CANCER” (Faeth Therapeutics, Inc., priority 2021, published 2025)
